Results from ChEMBL document CHEMBL1921727, “Stereoselective synthesis of (RP)-8-substituted-N⁶-acylated and N⁶-alkylated adenosine-3',5'-cyclic phosphorothioic acids as cAMP antagonists” (Eur J Med Chem, 2011).
Active and inactive are the calls of the source. The rule behind the calls is not given here.

Legend:
T-cell [1] = experiment: Antagonist activity at PKA in human CD3-positive T cells assessed as inhibition of cell proliferation after 72 hrs by [H]thymidine incorporation assay; type: functional, cell-based
T-cell [2] = experiment: Induction of PKA activation in human CD3-positive T cells assessed as increase of cell proliferation after 72 hrs by [H]thymidine incorporation assay; type: cell-based
[3] = Cytotoxicity against human CD3-positive T cells assessed as [H]thymidine incorporation after 72 hrs by beta scintillation counting; type: cell-based; conditions: t-cell
[4] = Antagonist activity at PKA in human CD3-positive T cells assessed as inhibition of cell proliferation after 72 hrs by [H]thymidine incorporation assay relative to (RP)-8-Br-cAMPS; type: functional
T-cell [5] = experiment: Induction of PKA activation in human CD3-positive T cells assessed as increase of cell proliferation after 72 hrs by [H]thymidine incorporation assay relative to (SP)-8-Br-cAMPS; type: cell-based

Compound | Inhibition of cell proliferation (active/not active) (T-cell [1]) | Activity (T-cell [2]) | Activity [3] | Ratio [4] | Ratio (T-cell [5])
CN(C)c1ncnc2c1nc(-c1ccco1)n2[C@@H]1O[C@@H]2COP(=O)([S-])O[C@H]2[C@H]1O.[Na+] (stereo not given in full) | inactive | Active | Non-toxic | 0.1 | –
CNc1ncnc2c1nc(-c1ccco1)n2[C@@H]1O[C@@H]2COP(=O)([S-])O[C@H]2[C@H]1O.[Na+] (stereo not given in full) | Active | Active | Non-toxic | 0.2 | –
CCCCNc1ncnc2c1nc(-c1ccco1)n2[C@@H]1O[C@@H]2COP(=O)(S)O[C@H]2[C@H]1O (stereo not given in full) | Active | Active | Non-toxic | 0.53 | –
O=P1([S-])OC[C@H]2O[C@@H](n3c(-c4ccco4)nc4c(NCc5ccccc5)ncnc43)[C@H](O)[C@@H]2O1.[Na+] (stereo not given in full) | inactive | inactive | Non-toxic | – | 0.99
CCCNc1ncnc2c1nc(-c1ccco1)n2[C@@H]1O[C@@H]2COP(=O)(S)O[C@H]2[C@H]1O (stereo not given in full) | Active | Active | Non-toxic | 0.24 | –
